Values after ≈ are worked out from the molar mass of the structure shown.
Experiments:
[1] = system: HSV-1; test: Topical treatment of ocular HSV-1 infection, rabbits
Protocol: New Zealand white rabbits were acclimated for a minimum of two days prior to inoculation to allow the animals to accommodate to conditions in the vivarium facility. After the accommodation period, animals received a slit lamp ocular examination to exclude any animals with preexisting anterior segment ocular defects. Animals were bilaterally inoculated topically with an 80 μl drop of Minimal Essential Medium (MEM; Gibco) containing 10^5 pfu/ml McKrae strain HSV-1; eyes were massaged for 30 seconds. Animals were replaced individually in cages.
On day 4 post inoculation (PI), animals were evaluated by slit lamp microscopy. Corneal epithelial, iris, and conjunctival disease were graded on an increasing scale of severity from 0+ to 4+. After evaluation, animals were divided into 4 groups of 5 animals with matched corneal, stromal and conjunctival involvement. Topical therapy was initiated immediately after animal grouping. Therapy groups included:
Group #1: 5 rabbits, Y-1 topical therapy (6.25 μg/50 μl) 5×/dayfor 4 days;
Group #2: 5 rabbits, Y-1 topical therapy (12.5 μg/50 μl) 5×/dayfor 4 days;
Group #3: 5 rabbits, Y-1 topical therapy (18.75 μg/50 μl) 5×/day for 4 days;
Group #4: 5 rabbits, placebo therapy (sterile water) 5×/day for 5 days.
All Y-1 doses were formulated to contain these concentrations in a volume of 50 μl (a standard eye drop).
Topical therapy with 0-19 μg Y-1 in 50 μl was initiated on day 4 post-inoculation (PI) and continued to day 7 PI. All animals received daily ocular slit lamp evaluations from day 3 through day 7 PI. The ocular HSV-1 induced disease severity was recorded daily.
Eyes of all animals were additionally sampled for the presence of infectious HSV-1 on days 0 (pre-inoculation), 3, 5, and 7 PI. Briefly, tear film was obtained by swabbing the lower and upper conjunctival sacs and retaining the swab in the nasal fornix for 10 seconds. The swabs were eluted individually in Hank's Buffered Saline (HBSS, Gibco Laboratories). Fifty microliter aliquots of the virus-HBSS eluate was adsorbed onto confluent HFF cell monolayers for 5 minutes. Monolayers were hydrated with Minimal Essential Medium (MEM; Gibco Laboratories), incubated at 37° C. and observed daily for two weeks to detect cytopathology consistent with HSV infection (HSV CPE).
On day 7 PI (sacrifice), the corneal epithelium was scraped from the eyes and HSV was recovered on HFF cell monolayers. Corneal epithelial co-cultures were evaluated daily by inverted light microscopy.

[2] = system: HSV-1; test: HSV-1 viral yield inhibition by combined drug exposure; type: cell-based; settings: HSV-1, FIG. 34A
From the text: With either drug alone, a maximum decrease in viral yield was slightly less than three logs (orders of magnitude).
Two days later, the medium was removed.

[3] = system: HSV-2; test: Plaque reduction assay, HSV-2, Vero cells; type: cell-based, HSV-2 (333); settings: Human alphaherpesvirus 2, Vero
Protocol: (§1) used in Table 3 were further tested for activity against HSV infection in
(§2) a plaque reduction assay, as detailed in Example 6. Here Vero cells, after
(§3) overnight incubation, were exposed to serial dilutions of KY compound,
(§4) from 0.625-10 μg/ml, and HSV-1 or HSV-2 virus for two hours. After
(§5) washing to remove drug and extracellular virus, the cells were further
(§6) incubated for 2 days, then stained and counted for plaque formation.
(§7) Percent inhibition was determined by dividing plaques produced by total
(§8) number of plaques in infected, untreated controls. From the concentration
(§9) effect curve of plaque inhibition (expressed as percent of control), the
(§10) concentration of compound required to produce 50% plaque reduction,
(§11) IC50, was determined. The IC50 values for infection by HSV-1 and
(§12) HSV-2 infection is given in the right-hand columns in Table 3. With

[4] = system: HSV-1 and HSV-2; test: Viral yield inhibition, HeLa cells, plaque count on Vero cells; settings: virus yield or CPE assays
Protocol: The ability of selected naphthalene-subunit compounds to inhibit HSV-1 and HSV-2 viral yields at selected drug concentrations up to 10 μg/ml was assessed in the viral inhibition assay described in Example 7. Briefly, cultured Hela cells were exposed to serially diluted KY compound and virus, allowed to grow for 24 hours, then freeze/thawed 3 times to release virus particles. Vero cells were infected serial dilutions of the viral lysates were assayed for plaque counts as described in Example 6.
1×10^6 HeLa S3 were plated in 25 T flasks in 5 ml RPMI-1640+5% FCS+P/S. 24 hours later, the medium was aspirated and replaced with 6×10^6 PFU HSV-1 or HSV-2, and serial dilutions of selected KY compounds, at 10, 5, 2.5, 1.25, and 0.625 μg/ml drug. After growth at 37° C. for 24 hours in 2 ml of RPMI-1640 containing 2% FCS and P/S, the cells were frozen at -70° C. until the time for titration. The cells were freeze/thawed 3 times to release virus from the cells, and serially diluted 10 fold.
1×10^5 Vero cells were plated in each well of 24 well multi-dish in 1 ml RPMI-1640+5% FCS+P/S+0.1% methylcellulose (15 cps). On the second day, after removal of the medium, the 10 fold serially diluted virus in 100 μl was added in duplicate. […] The plaques formed were counted and the titer was calculated from the fold of dilutions.

[5] = system: HSV-2; test: Topical treatment of genital HSV-2 infection, guinea pigs, second study
Protocol: In another study using the guinea pig genital model described above, animals were infected with HSV-2, then treated with KY-1 or Y-1 topically at concentrations of 2% or 5% drug. […] Animals were treated and scored daily for severity of infection for 19 days.
(§13) The MS strain of HSV-2 was utilized for the experimental animal infection. Female Hartley strain guinea pigs (Charles River Breeding Laboratories, Kingston, NY) weighing 250-300 g were inoculated intravaginally with 2.0×10^5 plaque-forming units of HSV-2 one hour after being swabbed for removal of vaginal secretions.
Formulations of KY-1 or Y-1 were prepared by dissolving the compound in a 1.5% methyl cellulose solution such that final concentration of compound was 2% or 5% (wt/wt). Control animals were given either no treatment (N=10 animals) or treatment with placebo (1.5% methylcellulose solution).
(§14) To determine the effect of therapy on the development and spread of external genital lesions, lesion severity was scored on a 0-5+ scale through the primary infection period (19-21 days). Lesion score-day areas and virus titer-day areas under the curve, and peak lesion scores and peak virus titers between untreated and placebo-treated or placebo-treated and drug-treated animals were compared using the Mann-Whitney U range sum test. A p-value of 0.05 or less was considered significant.
Animals were scored daily for 19 days following inoculation for presence of lesions and severity of lesions (on a 0-5+ point scale). Lesion scores were tabulated as area under the curve of daily lesion score vs. time (days) and peak lesion score observed. A known antiviral agent, acyclovir (ACV) was administered in a 5% formulation to 8 animals as a positive control in the study.

[6] = system: HIV-HXB; test: Inhibition of syncytia formation, HIV-HXB (HTLV-IIIB)
Protocol: Briefly, cells chronically infected with HTLV-IIIB or RF-II HIV strains were incubated in the presence of serial dilutions of the selected KY compound, then further cocultured with indicator cells. The extent of syncytia formation was scored under phase microscopy.
Representative calix(n)arene compounds from Table 2 were tested for inhibition of cytopathic effects in cells infected with one of two HTLV-III strains, HTLV-IIIB and RF-II strains, as described in Example 12, and in the subsection above.
Human CD4^+ indicator cells (VB) and chronically infected H9 cells were maintained in RPMI-1640 medium supplemented with 5% fetal calf serum, 100 Units of penicillin per ml and 100 μg of streptomycin per ml at 37° C. in a humidified incubator containing 7% CO2.
For the fusion assay, serial dilutions between 1:2 and 1:2^8 of a selected KY compound, 1 mg/ml in PBS were made in a 96 well round bottom plate. The diluted KY compound was transferred to a 96 well flat-bottom plate. To each well was added 25 μg chronically infected H9 cells (at 2×10^6, cells/ml), or cells chronically infected with RF-II strain HIV, followed by incubation at 37° C. for 45 minutes. To each well was then added 25 μl VB cells (about 5×10^4 cells), and the cells and virus isolates were cocultured for 18 hours in a humid 5% CO2 atmosphere.

[7] = system: HSV-1; test: Plaque reduction assay, HSV-1, Vero cells; type: cell-based, HSV-1 (Kos-1)
Protocol: as §1, §2, §3, §4, §5, §6, §7, §8, §9, §10, §11, §12

[8] = system: coagulation; test: Anti-coagulant activity after oral and intravenous administration; type: in vivo; settings: protamine sulfate intravenous
Protocol: One of the considerations in the administering the composition, particularly when the drug is administered parenterally or orally, is systemic side effects. Studies conducted in support of the present invention indicate that the calix(n)arene compound, particularly the sulfonic acid compound, may show anti-coagulant activity after oral and intravenous administration. […] The protamine administration is timed to correspond to highest blood levels of the calix(n)arene compounds. In a typical method, a dose of protamine equivalent to about 1 mg per 100 heparin anticoagulant units is administered intravenously simultaneously with IV administration of the calix(n)arene, or 1-2 hours after oral administration of the macrocyclic drug. It is generally recommended that protamine be infused slowly (i.e., not more than a total of 50 mg/10 minutes).

[9] = system: HSV-1 KOS; test: Inhibition of viral yield, wild type HSV-1 KOS; settings: Human alphaherpesvirus 1, HeLa, read-out: ID90
Protocol: (§15) These compounds tested were the nucleoside analogs acyclovir (ACV), ganciclovir (DHPG), phosphonoformate (PFA), and phosphomethoxyethyladenine (PMEA). Inhibition of viral yield was determined, as above, by infecting Hela cells in the presence of wild type or drug-resistant strains of HSV-1 or HSV-2, and serial dilutions of a selected anti-viral compound, and infecting Vero cells with serial dilutions of the Hela cell lysate, as above.
(§16) The KOS (HSV-1) and 333 (HSV-2) are wild type viruses; the KOS(PMEA)' and KOS(PFA)' are drug-resistant HSV-1 strains having a DNA polymerase mutation. The 333(DHPG) strain is a drug-resistantHSV-2 strain having a thymidine kinase mutation.
(§17) The following strains of HSV-1 and HSV-2 virus were used: KOS, a wild type HSV-1 virus; KOS (PMEA) and KOS (PFA), both drug-resistant HSV-1 viruses having a DNA polymerase mutation; 333, a wild type HSV-2 HSV-2 virus, and 333 (DHPG), a drug-resistant HSV-2 virus having a thymidine kinase mutation.
(§18) After growth at 37° C. for 24 hours in 2 ml of RPMI-1640 containing 2% FCS and penicillin and streptomycin (P/S), the cells were frozen at -70° C. until the time for titration. The cells were freeze/thawed 3 times to release virus from the cells, serially diluted 10 fold, and the serial dilutions were added to Vero cells in culture. After 2 hours incubation at 37° C. the virus was removed and 0.5 ml methycellulose (4K cps) in RPMI-1640 and 2% FCS+P/S was added. Two days later, the medium was removed. The cells were stained in 0.8% crystal violet in 50% ethanol. The plaques formed were counted and the titer was calculated from the fold of dilutions. From the drug dose response, the concentration of each drug required to effect a 90% inhibition of virus yield, the IC90 concentration was determined.

[10] = system: HSV-1 KOS (PFA)'; test: Inhibition of viral yield, drug-resistant HSV-1 KOS(PFA)'; settings: Human alphaherpesvirus 1, HeLa, read-out: ID90
Protocol: as §15, §16, §17, §18

[11] = system: HSV-1 KOS(PMEA)'; test: Inhibition of viral yield, drug-resistant HSV-1 KOS(PMEA)'; settings: Human alphaherpesvirus 1, HeLa, read-out: ID90
Protocol: as §15, §16, §17, §18

[12] = system: HSV-2 333 (DHPG)'; test: Inhibition of viral yield, drug-resistant HSV-2 333(DHPG)'; settings: Human alphaherpesvirus 2, HeLa, read-out: ID90
Protocol: as §15, §16, §17, §18

[13] = system: HSV-2 333; test: Inhibition of viral yield, wild type HSV-2 333; settings: Human alphaherpesvirus 2, HeLa, read-out: ID90
Protocol: as §15, §16, §17, §18

[14] = system: HSV-2; test: Topical treatment of genital HSV-2 infection, guinea pigs, first study; settings: 5%
Protocol: Briefly, female guinea pigs were infected intravaginally with HSV-2, then treated topically three times daily beginning 6 hours or 48 hours after inoculation with HSV-2, as described in Example 13. […] Swabs of vaginal secretion were obtained and assayed for viral activity by a standard CPE assay. The severity of genital lesions was scored on a 0-5+ scale through the period of primary infection (21 days).
as §13
In the first study, groups of 10 guinea pigs were treated topically (0.1 ml intravaginally +0.1 ml on external genital skin) three times daily (approximately every eight hours) for seven days beginning 6 h or 48 h after inoculation with HSV-2.
To determine the effect of treatment on vaginal viral replication, swabs of vaginal secretions were obtained on days 1, 3, 5, 7 and 10 after HSV inoculation, placed in a tube containing 2.0 ml of media, vortexed and frozen at -70° C. until titrated for HSV-2. When all samples were collected, they were thawed, diluted serially and HSV-2 titers determined using rabbit kidney cells in a microtiter CPE assay.
as §14

Compound: O=S(=O)(O)c1cc2c(O)c(c1)Cc1cc(S(=O)(=O)O)cc(c1O)Cc1cc(S(=O)(=O)O)cc(c1O)Cc1cc(S(=O)(=O)O)cc(c1O)Cc1cc(S(=O)(=O)O)cc(c1O)Cc1cc(S(=O)(=O)O)cc(c1O)Cc1cc(S(=O)(=O)O)cc(c1O)Cc1cc(S(=O)(=O)O)cc(c1O)C2 [Y-1]
- ocular disease, 12.5 μg/50 μl ([1]; 12.5 μg/50 μl topical): most effective ocular therapy
- corneal epithelial HSV-1 induced disease, 18.75 μg/50 μl ([1]; 18.75 μg/50 μl topical): effective in reducing the development of corneal epithelial HSV-1induced disease
- toxicity to corneal epithelial surface, conjunctiva, iris and stroma ([1]; 18.75 μg/50 μl, days 6 and 7): somewhat toxic to the corneal epithelial surface and to the conjunctiva, iris and stroma
- ocular disease severity versus placebo ([1]; all concentrations, topical): effective in reducing the development of HSV-1 induced ocular disease
- viral titer in epithelial scrapings ([1]; day 7): dose-dependent reduction in viral titer
- maximum decrease in viral yield, either drug alone [2]: less than three
- IC50 [3]: 7.2 µg/mL (≈ 4.83 µM)
- ED90 concentration [4]: 12.5 μg/50 μl
- lesions versus placebo, in words ([5]; 2% or 6%, 6 h treatment): reduced numbers of animals exhibiting lesions, decreased mean lesion scores and decreased peak lesion score
- % Animals with Lesions ([5]; 2%, 6 h): 66.7%
- Lesion Score (AUC) ([5]; 2%, 6 h): 16.9
- Mean Peak lesion score ([5]; 2%, 6 h): 1.8
- % Animals with Lesions ([5]; 2%, 24 h): 60%
- Lesion Score (AUC) ([5]; 2%, 24 h): 22.0
- Mean Peak lesion score ([5]; 2%, 24 h): 2.3
- % Animals with Lesions ([5]; 6%, 6 h): 30%
- Lesion Score (AUC) ([5]; 6%, 6 h): 8.1
- Mean Peak lesion score ([5]; 6%, 6 h): 1.2
- % Animals with Lesions ([5]; 6%, 24 h): 40%
- Lesion Score (AUC) ([5]; 6%, 24 h): 14.7
- Mean Peak lesion score ([5]; 6%, 24 h): 1.8
- lesions, in words ([5]; 24 hours post-infection, 6% KY-1 or Y-1, 2% KY-1): reduced numbers of lesion bearing animals and reduced severity of lesions
- relative activity against HXB strain, in words ([6]; HXB strain): comparable activities against the HXB strain
- IC50 ([6]; Human immunodeficiency virus 1, read-out: HIV-HXB IC50): 16 µg/mL (≈ 10.7 µM)
- IC50 ([7]; Human alphaherpesvirus 1, Vero, plaque reduction, Vero cells): 7 µg/mL (≈ 4.7 µM)
- relative anti-HSV activity, in words ([7]; plaque reduction HSV-1 and HSV-2): somewhat more active than the corresponding n=4 and n=6 compounds

Compound: protamine sulfate
- blocking of anticoagulant effect of calix(n)arene [8]: effectively blocked

Compound: Nc1nc2c(ncn2COCCO)c(=O)[nH]1 [ACV, acyclovir, reference compound]
- IC90 [9]: 14 µM
- maximum decrease in viral yield, either drug alone [2]: less than three
- IC90 [10]: 100 µM
- IC90 [11]: 380 µM
- IC90 [12]: > 100 µM
- % Animals with Lesions ([5]; 5%, 24 h): 37.5%
- Lesion Score (AUC) ([5]; 5%, 24 h): 11.7
- Mean Peak lesion score ([5]; 5%, 24 h): 1.5
- IC90 [13]: ~10 µM
- Lesion score Area Under Curve ([14]; +6 h): 2.7
- Mean Peak lesion score ([14]; +6 h): 0.6
- Lesion score Area Under Curve ([14]; +48 h): 45.8
- Mean Peak lesion score ([14]; +48 h): 3.8

From patent publication US5441983A, “Treatment of infection by enveloped virus with calix(N)arene compounds” (Genelabs Incorporated, priority 1992, dated 1995)
